# Reference: US6579853B2, “Brain cell or nerve cell-protective agents comprising ginsenoside Rb1” (Japan Science and Technology Corporation, priority 1998, dated 2003)
# Tests used:
# [1] = intracerebroventricular administration; cited from earlier work
# [2] = in vivo
# [3] = system: transient forebrain ischemia model of gerbils; details: cited from earlier work
# [4] = in vivo; cited from earlier work
# nerve cells [5] = details: approximately 500 μM (550 μg/ml); cited from earlier work
# Bcl-xL mRNA = Bcl-xL mRNA expression in cultured nerve cells (RT-PCR); type: cell-based, rat; details: 1 fg/ml or 100 fg/ml, 24 hours; compared with control (0 fg/ml)
# Experimental: It was investigated whether ginsenoside Rb1 of the present invention can increase the expression of Bcl-xL gene or not. Experimental techniques followed those by Wen et al. (Wen T. -C., et al., J. Exp. Med., 188, 635-649, 1998). Total RNA was extracted from cultured nerve cells treated for 24 hours with ginsenoside Rb1 at the concentrations of 0 fg/ml, 1 fg/ml and 100 fg/ml. cDNA was prepared from DNase-treated total RNA (3 μg) by using oligo dT primer and reverse transcriptase (Moloney murine leukemia virus reverse transcriptase). Gene amplification reaction (polymerase chain reaction, PCR) was performed by using Taq polymerase under the following conditions: (1) 94° C., 2 minutes; (2) 94° C., 1.5 minute; 55° C., 1.5 minute; 72° C., 2 minutes constructed one cycle, and 25 cycles for Bcl-xL and 20 cycles for β-actin were performed; and (3) 72° C., 2 minutes.
# PCR products were electrophoresed on 3% agarose gel and visualized by ethidium bromide staining. The expression of β-actin mRNA was used as an internal standard. […]
# [6] = system: gerbils loaded with 3 minute forebrain ischemia; test: TUNEL staining of hippocampal CA1 field after 3 minute forebrain ischemia, intracerebroventricular administration; type: in vivo, gerbil; details: i.c.v. 2.5 or 25 ng single, then 60 or 600 ng/day for 1 week; 1 week after ischemia
# Experimental: In order to analyze a suppressive effect of ginsenoside Rb1 on intracerebral apoptosis-like neuron death, the present inventors examined whether actually occurring pathological apoptosis-like neuron death in the mature brain can be reduced by administration of ginsenoside Rb1 or not. The three minute forebrain ischemia model of gerbils was used as model animal. It was reported that at one week after 3 minute ischemia, about one half of hippocampal CA1 pyramidal neurons degenerated (Sakanaka M., et al., Proc. Natl. Acad. Sci. USA, 95, 4635-4640, 1998). […] With this model animal, it was examined with TUNEL staining whether apoptosis-like neuron death on the 7th day after 3 minute ischemia could be suppressed by intracerebroventricular administration of ginsenoside Rb1 or not.
# Immediately after 3 minute forebrain ischemia in gerbils under inhalation anesthesia, a single intracerebroventricular administration of ginsenoside Rb1 at the dose of 2.5 ng or 25 ng was performed, and subsequently ginsenoside Rb1 (60 ng/day or 600 ng/day) was continuously infused into the cerebral ventricles through an osmotic minipump for 1 week. At one week after 3 minute forebrain ischemia, the gerbils were perfused and fixed transcardially with phosphate buffer containing 4% paraformaldehyde under pentobarbital anesthesia and the brain was dissected out. […]
# nerve cells [7] = details: cited from earlier work
# [8] = system: cerebrocortical neurons from rats at embryonic age 17; test: Peroxidation of neuronal membrane lipids by ferrous sulfate and ascorbic acid (TBA); type: cell-based, rat; details: 48 hours pretreatment
# Experimental: Then the medium was changed to a fresh medium containing ferrous sulfate and ascorbic acid but not containing ginsenoside Rb1 and the neuronal culture was maintained for 2 hours to generate hydroxyl radicals for giving an oxidative injury to neuronal membrane. The generated neuronal membrane lipid peroxide was determined by photometrically measuring a fixed amount of thiobarbituric acid (TBA) after solubilizing the cells with sodium dodecyl sulfate.
# Then the medium was changed to a fresh medium containing ferrous sulfate and ascorbic acid but no ginsenoside Rb1, and the neuronal culture was maintained for 2 hours to generate hydroxyl radicals for giving oxidative injury to neuronal membrane. The generated neuronal membrane lipid peroxide was photometrically determined by measuring the fixed amount of thiobarbituric acid (TBA) after solubilizing the cells with sodium dodecyl sulfate.
# [9] = system: SH-SP rats with MCA permanent occlusion; test: Ratio of cerebrocortical infarction after MCA permanent occlusion, intravenous infusion; type: in vivo, rat
# Experimental: (§1) First, we examined the actions of intravenous infusion of ginsenoside Rb1. For this purpose, for example, male SH-SP rats weighing 250˜300 g at the age of 12-13 weeks were used. The animals were bred in an air-conditioned room with a 12:12 hour light-dark cycle, and water and feeds were supplied ad libitum. The cortical branch of the left middle cerebral artery (MCA) was coagulated and cut. A single intravenous administration of ginsenoside Rb1 dissolved in physiological saline was conducted immediately after MCA permanent occlusion (6 μg or 60 μg), thereafter continuous intravenous administration of ginsenoside Rb1 was performed for 28 days by using an Alza mini osmotic pump (6 μg/day or 60 μg/day).
# After the water maze tests at the 4th week, the SH-SP rats were anesthetized with chloral hydrate, and they were perfused and fixed transcardially with 0.1 mole phosphate buffer containing 4% paraformaldehyde. The brains were dissected out and cerebrocortical infarcted areas were photographed. Areas of the left cerebral hemisphere and the left cerebrocortical infarct lesions were measured on the photographs by using an image analysis device. The left cerebrocortical infarcted areas were divided by the left cerebral hemispheric areas to calculate ratios of the cerebrocortical infarction (%).
# Male SH-SP rats at the age of 12-13 weeks, weighing 250-300 g, were used. The animals were bred in a room furnished with 12 hours light and dark cycles and water and feeds were supplied ad libitum. Blood pressure of the animals was 203±6.9 mmHg. The following experiments were conducted in accordance with the Guide for Animal Experimentation at Ehime University School of Medicine. […]
# After termination of the water maze tests at the 4th week, the SH-SP rats were anesthetized with chloral hydrate, and they were perfused and fixed transcardially with 0.1 mole phosphate buffer containing 4% paraformaldehyde. […] Areas of the left cerebral hemisphere and the left cerebrocortical infarct lesions were measured on the photographs by using an image analysis device. […]
# [10] = system: cerebrocortical nerve cells (neurons) from rats at embryonic age 17
# Experimental: After maintaining cerebrocortical nerve cells (neurons) from rats at embryonic age 17 in a serum-free culture medium for 4 or 5 days, the medium was replaced with a fresh medium containing or not containing ginsenoside Rb1 and the neurons were incubated for 24 hours. Then, SNP at the concentration of 100 μM was added to the medium for 10 minutes, and the nerve cells (neurons) were maintained in a medium containing ginsenoside Rb1 for 16 hours. Survival rate of the nerve cells was measured by using a redox indicator, alamar blue.
# In the present experiments, ginsenoside Rb1 was added before and after SNP loading or only after SNP loading, and its effects were measured.
# After maintaining cerebrocortical nerve cells (neurons) from rats at embryonic age 17 in a serum-free culture medium for 4 or 5 days, the medium was replaced with a fresh medium containing ginsenoside Rb1 at the concentrations of 1 fg/ml, 100 fg/ml and 100 pg/ml or no ginsenoside Rb1 (0 fg/ml), and the neurons were incubated for 24 hours. Thereafter a nitric oxide (NO) donor, sodium nitroprusside (SNP) at a concentration of 100 μM, was added to the medium for 10 minutes. Then the nerve cells (neurons) were maintained in a medium containing ginsenoside Rb1 for 16 hours. Survival rate of the nerve cells was measured by using a redox indicator, alamar blue.
# Data are represented as a mean±SE. […]
# [11] = system: gerbils with occlusion of the common carotid arteries; details: i.c.v. infusion starting immediately after 3 or 3.5 minute occlusion; cited from earlier work
# [12] = system: SH-SP rats with MCA permanent occlusion; test: Water maze test (place navigation ability) after MCA permanent occlusion, intravenous infusion; type: in vivo, rat
# Experimental: as §1
# After MCA permanent occlusion, according to the conventional method (Zhang B. et al., J. Stroke Cerebrovasc. Dis., 7, 1-9, 1998), water maze tests were performed for 4 days at the 2nd week and the 4th week, respectively, and the place navigation abilities of SH-SP rats were determined.
# Male SH-SP rats at the age of 12-13 weeks, weighing 250-300 g, were used. The animals were bred in a room furnished with 12 hours light and dark cycles and water and feeds were supplied ad libitum. Blood pressure of the animals was 203±6.9 mmHg. The following experiments were conducted in accordance with the Guide for Animal Experimentation at Ehime University School of Medicine. The cortical branch of the left middle cerebral artery (MCA) of SH-SP rats, were coagulated and cut, while their rectal temperature was maintained at 37±0.2° C. under inhalation anesthesia.
# Immediately after MCA permanent occlusion, 60 μl of physiological saline containing ginsenoside Rb1 at a concentration of 1 μg/μl or 0.1 μg/μl was injected once into the left femoral vein. […]
# After the MCA permanent occlusion according to the conventional method (Zhang B. et al., J. Stroke Cerebrovase. Dis., 7, 1-9, 1998), water maze tests were performed for 4 days at the 2nd week and the 4th week, respectively, and place navigation abilities of SH-SP rats were determined. […]
# cultured nerve cells = details: cited from earlier work
# brain = details: intraperitoneal administration; cited from earlier work
# [13] = system: SH-SP rats with permanent occlusion of the MCA; details: cited from earlier work
# neuronal cells = details: 0.11-11 μg/ml; cited from earlier work
# [14] = i.c.v. infusion starting immediately after permanent MCA occlusion
compound,measurement,setting,value
CC(C)=CCC[C@](C)(O[C@@H]1O[C@H](CO[C@@H]2O[C@H](CO)[C@@H](O)[C@H](O)[C@H]2O)[C@@H](O)[C@H](O)[C@H]1O)[C@H]1CC[C@]2(C)[C@@H]1[C@H](O)C[C@@H]1[C@@]3(C)CC[C@H](O[C@@H]4O[C@H](CO)[C@@H](O)[C@H](O)[C@H]4O[C@@H]4O[C@H](CO)[C@@H](O)[C@H](O)[C@H]4O)C(C)(C)[C@@H]3CC[C@]12C [ginsenoside Rb1],"brain temperature, cerebral blood flow and blood pressure",[1],no effects
same,adverse effect on administered animals,[2],No adverse effect
same,delayed neuronal death and learning disability caused by 5 minute occlusion,[3]; i.p. 10 or 20 mg/kg once a day for one week in advance,significantly prevent
same,hippocampal CA1 pyramidal neurons rescued,[3]; i.p. 10 or 20 mg/kg/day before ischemic loading,about 30%
same,effect of intraperitoneal administration after ischemia,[3]; i.p. immediately after 3- or 5-minute occlusion of the common carotid arteries,no effect
same,detection in blood after oral administration,[4],can not be detected
same,apoptosis-like nerve cell death,nerve cells [5],has a possibility to prevent
same,expression of Bcl-xL mRNA,Bcl-xL mRNA,increased
same,TUNEL-positive nerve cells in hippocampal CA1 field,[6],significantly reduced in a dose-dependent manner
same,neurotoxicity at high concentrations,nerve cells [7],increased neurotoxicity
same,preventive effect on lipid peroxidation,[8]; 0.1-10 fg/ml,no preventive effects
same,preventive effect on peroxidation of nerve cell membrane lipid,[8]; 100 fg/ml,slightly confirmed
same,ratio of cerebrocortical infarction,"[9]; i.v. 6 or 60 μg/day for 28 days, compared with physiological saline group",significantly reduced
same,actual volume of infarction reduced to (fraction of control),"[9]; i.v. administration, worked out from area ratio",about ¼
same,mean ratio of cerebrocortical infarction compared with physiological saline group,"[9]; i.v. ginsenoside Rb1 groups, reduced to",≤ 50%
same,apoptosis of nerve cells after SNP treatment,"[10]; 1-100 fg/ml, added before and after SNP (100 μM, 10 minutes) or only after SNP",significantly suppressed
same,concentrations in extracellular fluid that suppress apoptosis of nerve cells,[10]; SNP-treated cultured neurons,1 to 100 fg/mL
same,delayed neuronal death and learning disability,[11],suppresses
same,"learning disability in water maze tests, low dose","[12]; i.v. 6 μg/day, 3rd and 4th day at the 2nd and 4th week after MCA occlusion",significantly ameliorated
same,"learning disability in water maze tests, high dose","[12]; i.v. 60 μg/day, 4th day at the 2nd week, 3rd and 4th days at the 4th week after MCA occlusion",significantly ameliorated
same,place navigation disability after MCA permanent occlusion (water maze),"[12]; intravenous infusion 6 or 60 μg/day for 28 days, compared with cerebral infarction group given physiological saline",significantly improved
same,neurotoxicity of free radicals,cultured nerve cells; 0.1-100 fg/ml,reduce the neurotoxicity
same,neuronal necrosis caused by ferrous sulfate,cultured nerve cells; 1-100 fg/ml previously admixed in culture medium,reduces neuronal necrosis
same,action on the brain,brain,tranquilizing action
same,suppressive effect on cerebral infarction,[13]; continuous i.c.v. infusion 0.6 μg/day after MCA occlusion,significant suppressive effect
same,curative effect on cerebral infarction,[13]; continuous i.c.v. infusion 6 μg/day or 0.06 μg/day after MCA occlusion,no curative effect
same,infarcted area in the cerebral cortex,[13]; [14],significant reduction
same,ischemia-induced place navigation disability,[13]; [14],ameliorated
same,glutamate-mediated neurotoxicity,neuronal cells,reduce glutamate-mediated neurotoxicity
